These are literature values, as cited in PubChem BioAssay AID1259410 (Chemical Carcinogenesis Research Information System (CCRIS), 2018).

The subject of the data set is rodent tumor promotion studies, tumor incidence. Kind of data set: CCRIS tumor promotion studies.
[1] abbreviates: Carcinogen: 7,12-DIMETHYLBENZ(A)ANTHRACENE, Doses [Carcinogen]: TOP, Route [Carcinogen]: DERMAL, Route [Promoter]: DERMAL, Species: MOUSE, Strain/Sex: FEMALE.

Turning to `C=C1/C(=C\C=C2/CCC[C@]3(C)[C@@H]([C@H](C)CCC(F)(F)C(C)(C)O)CC[C@@H]23)C[C@H](O)C[C@H]1O`, the outcome (Carcinogen: 7,12-DIMETHYLBENZ[A]ANTHRACENE, 57-97-6, Doses [Carcinogen]: 50 NMOL IN 200 µL ACETONE 2/WK FOR 16 WK, Doses [Promoter]: 0, 0.05, 0.1 NMOL IN 200 µL ACETONE APPLIED 1 HR PRIOR TO CARCINOGEN DOSES 2/WK FOR 16 WK (STUDY DURATION: 16 WK), Doses [Promoter]: 0, 0.05, 0.1 NMOL IN 200 µL ACETONE APPLIED 1 HR PRIOR TO CARCINOGEN DOSES 2/WK FOR 16 WK (STUDY DURATION: 16 WK), Route [Carcinogen]: DERMAL, Route [Promoter]: DERMAL, Species: MOUSE, Strain/Sex: CD-1/FEMALE) was “skin: tumors”.
With `Cc1cccc(Nc2cc(Cl)nc(SCC(=O)O)n2)c1C`, the outcome (Carcinogen: 2-ACETYLAMINOFLUORENE, 53-96-3, Doses [Carcinogen]: 0.02% IN DIET FOR 8 WK, Doses [Promoter]: 0, 0.1% IN DIET FOR 37 WK BEGINNING 2 WK POST CARCINOGEN TREATMENT (STUDY DURATION: 39 WK), Route [Carcinogen]: ORAL, Route [Promoter]: ORAL, Species: RAT, Strain/Sex: F344/MALE) is listed as “liver: adenoma”; the outcome (Carcinogen: DIETHYLNITROSAMINE, 55-18-5, Doses [Carcinogen]: 150 MG/KG BW ONCE, Doses [Promoter]: 0, 0.1% IN DIET FOR 37 WK BEGINNING 2 WK POST CARCINOGEN TREATMENT (STUDY DURATION: 39 WK), Route [Carcinogen]: INTRAPERITONEAL, Route [Promoter]: ORAL, Species: RAT, Strain/Sex: F344/MALE) was “liver: adenoma”; the outcome (Carcinogen: DIETHYLNITROSAMINE, 55-18-5, Doses [Carcinogen]: 150 MG/KG ONCE, Doses [Promoter]: 0.1% IN DIET BEGINNING 2 WK POST CARCINOGEN DOSE AND CONTINUING FOR 54 WK (STUDY DURATION: 56 WK), Route [Carcinogen]: INTRAPERITONEAL, Route [Promoter]: ORAL, Species: RAT, Strain/Sex: F344/MALE) is listed as “liver: hepatocellular carcinoma or neoplastic nodule”; the outcome (Carcinogen: DIETHYLNITROSAMINE, 55-18-5, Doses [Carcinogen]: 150 MG/KG ONCE, Doses [Promoter]: 0.1% IN DIET BEGINNING 2 WK POST CARCINOGEN DOSE FOR 71 WK FOLLOWED BY CONTROL DIET FOR DURATION OF STUDY (STUDY DURATIO, Route [Carcinogen]: INTRAPERITONEAL, Route [Promoter]: ORAL, Species: RAT, Strain/Sex: F344/MALE) was “liver: hepatocellular carcinoma or neoplastic nodule”; the outcome (Carcinogen: DIETHYLNITROSAMINE, 55-18-5, Doses [Carcinogen]: 150 MG/KG ONCE, Doses [Promoter]: 0.1% IN DIET BEGINNING 11 WK POST CARCINOGEN DOSE AND CONTINUING FOR DURATION OF STUDY (STUDY DURATION: 56 WK), Route [Carcinogen]: INTRAPERITONEAL, Route [Promoter]: ORAL, Species: RAT, Strain/Sex: F344/MALE) is given as “liver: hepatocellular carcinoma or neoplastic nodule”.
Turning to `[K+]`, the outcome is on record as “thyroid gland: follicular cell carcinoma” (Carcinogen: N-BIS-(2-HYDROXYPROPYL)NITROSAMINE [53609-64-6], Doses [Carcinogen]: 2800 MG/KG BW ONCE (STUDY DURATION: 83 WK), Doses [Promoter]: 1000 PPM IN DRINKING WATER FOR 82 WK BEGINNING 1 WK POST LAST CARCINOGEN DOSE (STUDY DURATION: 83 WK), Route [Carcinogen]: SUBCUTANEOUS, Route [Promoter]: ORAL, Species: RAT, Strain/Sex: F344/MALE); “kidney: renal cell tumors (no promoting effect observed)” (Carcinogen: N-Ethyl-N-hydroxyethylnitrosamine, 13147-25-6, Doses [Carcinogen]: 500 ppm in drinking water for 2 wk, Doses [Promoter]: 0, 350, 1750 ppm in drinking water beginning post carcinogen treatment and continuing for 24 wk (study duration: 26 wk), Doses [Promoter]: 0, 350, 1750 ppm in drinking water beginning post carcinogen treatment and continuing for 24 wk (study duration: 26 wk), Route [Carcinogen]: Oral, Route [Promoter]: Oral, Species: Rat, Strain/Sex: F344/Male (15/group)).
Turning to `CCC1(CC)C(=O)NC(=O)NC1=O`, the outcome (Carcinogen: DIETHYLNITROSAMINE, 55-18-5, Doses [Carcinogen]: 80 MG/KG BW ONCE, Doses [Promoter]: 0, 0.5% IN DIET FOR 39 WK BEGINNING 1 WK POST CARCINOGEN DOSE (STUDY DURATION: 40 WK), Route [Carcinogen]: INTRAPERITONEAL, Route [Promoter]: ORAL, Species: RAT, Strain/Sex: F344/MALE) is on record as “liver: tumor”.
Regarding `[O-][Br+2]([O-])O`, the outcome by setting is: (Carcinogen: 7,12-Dimethylbenz[a]anthracene, 57-97-6, Doses [Carcinogen]: 20 nmole as a single topical application, Doses [Promoter]: 0, 40 mg/ml on skin for 51 wk (study duration: 51 wk), Route [Carcinogen]: Dermal, Route [Promoter]: Dermal, Species: Mouse, Strain/Sex: Sencar/Female (20/group)) “skin: negative as both a complete carcinogen and as a promoter”; (Carcinogen: N-ETHYL-N-HYDROXYETHYLNITROSAMINE, 13147-25-6, Doses [Carcinogen]: 500 PPM IN DRINKING WATER FOR 2 WK, Doses [Promoter]: 0, 500 PPM IN DRINKING WATER BEGINNING POST CARCINOGEN TREATMENT AND CONTINUING FOR 24 WK (STUDY DURATION: 26 WK), Route [Carcinogen]: ORAL, Route [Promoter]: ORAL, Species: RAT, Strain/Sex: F344/MALE) “kidney: tumors”; (Carcinogen: N-Ethyl-N-hydroxyethylnitrosamine, 13147-25-6, Doses [Carcinogen]: 0.05% in drinking water for 2 wk, Doses [Promoter]: 0, 500 ppm in drinking water beginning post carcinogen treatment and continuing for 30 wk (study duration: 32 wk), Route [Carcinogen]: Oral, Route [Promoter]: Oral, Species: Rat, Strain/Sex: F344/Female (15/group)) “kidney: renal cell tumors”; (Carcinogen: N-Ethyl-N-hydroxyethylnitrosamine, 13147-25-6, Doses [Carcinogen]: 500 ppm in drinking water for 2 wk, Doses [Promoter]: 0, 15, 30, 60, 125, 250, 500 ppm in drinking water beginning post carcinogen treatment and continuing for 24 wk (study d, Doses [Promoter]: 0, 15, 30, 60, 125, 250, 500 ppm in drinking water beginning post carcinogen treatment and continuing for 24 wk (study d, Route [Carcinogen]: Oral, Route [Promoter]: Oral, Species: Rat, Strain/Sex: F344/Male (15/group)) “kidney: renal cell tumors”.
`Clc1cnc(Oc2ccc(Oc3ncc(Cl)cc3Cl)cc2)c(Cl)c1`: the outcome is “liver: adenoma; thyroid: follicular cell adenoma” (Carcinogen: N-NITROSODIETHYLAMINE, 55-18-5, Doses [Carcinogen]: 75 MG/KG BW ONCE, Doses [Promoter]: 0, 100O PPM IN DIET FOR DURATION OF STUDY BEGINNING 2 WK POST CARCINOGEN DOSE (STUDY DURATION: 74 WK), Route [Carcinogen]: INTRAPERITONEAL, Route [Promoter]: ORAL, Species: RAT, Strain/Sex: F344/MALE); “liver: adenoma” (Carcinogen: N-NITROSODIETHYLAMINE, 55-18-5, Doses [Carcinogen]: 75 MG/KG BW ONCE, Doses [Promoter]: 0, 330 PPM IN DIET FOR DURATION OF STUDY BEGINNING 2 WK POST CARCINOGEN DOSE (STUDY DURATION: 74 WK), Route [Carcinogen]: INTRAPERITONEAL, Route [Promoter]: ORAL, Species: RAT, Strain/Sex: F344/MALE); “nasal cavity: carcinoma” (Carcinogen: N-NITROSODIETHYLAMINE, 55-18-5, Doses [Carcinogen]: 75 MG/KG BW ONCE, Doses [Promoter]: 30 MG/KG IN CORN OIL 1/2 WK BEGINNING 2 WK POST CARCINOGEN DOSE AND CONTINUING FOR 71 WK (STUDY DURATION: 73 WK), Route [Carcinogen]: INTRAPERITONEAL, Route [Promoter]: INTRAPERITONEAL, Species: RAT, Strain/Sex: F344/MALE); “liver: hepatocellular adenoma or carcinoma” (Carcinogen: N-NITROSODIETHYLAMINE, 55-18-5, Doses [Carcinogen]: 90 MG/KG BW ONCE, Doses [Promoter]: 3 MG/KG BW IN CORN OIL 1/2 WK BEGINNING 2 WK POST CARCINOGEN DOSE AND CONTINUING FOR 24 WK (STUDY DURATION: 55 WK), Route [Carcinogen]: INTRAPERITONEAL, Route [Promoter]: INTRAGASTRIC, Species: MOUSE, Strain/Sex: C57BL/MALE); “liver: hepatocellular adenoma or carcinoma” (Carcinogen: N-NITROSODIETHYLAMINE, 55-18-5, Doses [Carcinogen]: 90 MG/KG BW ONCE, Doses [Promoter]: 3 MG/KG BW IN CORN OIL 1/2 WK BEGINNING 2 WK POST CARCINOGEN DOSE AND CONTINUING FOR 24 WK (STUDY DURATION: 55 WK), Route [Carcinogen]: INTRAPERITONEAL, Route [Promoter]: INTRAGASTRIC, Species: MOUSE, Strain/Sex: DBA/MALE); “liver: hepatocellular adenoma or carcinoma” (Carcinogen: N-NITROSODIETHYLAMINE, 55-18-5, Doses [Carcinogen]: 90 MG/KG BW ONCE, Doses [Promoter]: 3 MG/KG BW IN CORN OIL 1/2 WK BEGINNING 2 WK POST CARCINOGEN DOSE AND CONTINUING FOR 24 WK (STUDY DURATION: 55 WK), Route [Carcinogen]: INTRAPERITONEAL, Route [Promoter]: INTRAPERITONEAL, Species: MOUSE, Strain/Sex: C57BL/MALE). The outcome (Carcinogen: N-NITROSODIETHYLAMINE, 55-18-5, Doses [Carcinogen]: 90 MG/KG BW ONCE, Doses [Promoter]: 3 MG/KG BW IN CORN OIL 1/2 WK BEGINNING 2 WK POST CARCINOGEN DOSE AND CONTINUING FOR 24 WK (STUDY DURATION: 55 WK), Route [Carcinogen]: INTRAPERITONEAL, Route [Promoter]: INTRAPERITONEAL, Species: MOUSE, Strain/Sex: DBA/MALE) was “liver: hepatocellular adenoma or carcinoma”.
As for `c1ccc(-c2ccccc2)cc1`, where the note is “Carcinogen: N-BUTYL-N-(4-HYDROXYBUTYL)NITROSAMINE, 3817-11-6, Doses [Carcinogen]: 0.05% IN DRINKING WATER FOR 4 WK, Doses [Promoter]: 0, 0.5% IN DIET FOR 32 WK BEGINNING POST CARCINOGEN TREATMENT (STUDY DURATION: 36 WK), Route [Carcinogen]: ORAL, Route [Promoter]: ORAL, Species: RAT, Strain/Sex: F344/MALE”, the outcome is “urinary bladder: papilloma, carcinoma”.
With `Cc1cc(C)cc(O)c1`, under setting [1], the outcome is listed as “integumentary system (skin)”.
In the case of `C[C@@]12C(=O)OC(=O)[C@]1(C)[C@H]1CC[C@@H]2O1`, the outcome under setting [1] is “integumentary system (skin)”.
